Measurements from paper PMC5740388, “In Vitro Antibacterial Properties of Cefiderocol, a Novel Siderophore Cephalosporin, against Gram-Negative Bacteria” (Antimicrobial Agents and Chemotherapy, 2017).
Where two headings read alike, the source gives them in different places.

What was measured:
Test in all cases: competition with […]benzylpenicillin for PBPs
Format in all cases: binding
[1] = molecular target: T1, PBP1b of P. aeruginosa ATCC 27853 (Pseudomonas aeruginosa, UniProt G3XD31); details: covalent; read-out: IC50 (μg/ml) / Ceftazidime
T1 construct: gene mrcB
T1 sequence (G3XD31 1-774): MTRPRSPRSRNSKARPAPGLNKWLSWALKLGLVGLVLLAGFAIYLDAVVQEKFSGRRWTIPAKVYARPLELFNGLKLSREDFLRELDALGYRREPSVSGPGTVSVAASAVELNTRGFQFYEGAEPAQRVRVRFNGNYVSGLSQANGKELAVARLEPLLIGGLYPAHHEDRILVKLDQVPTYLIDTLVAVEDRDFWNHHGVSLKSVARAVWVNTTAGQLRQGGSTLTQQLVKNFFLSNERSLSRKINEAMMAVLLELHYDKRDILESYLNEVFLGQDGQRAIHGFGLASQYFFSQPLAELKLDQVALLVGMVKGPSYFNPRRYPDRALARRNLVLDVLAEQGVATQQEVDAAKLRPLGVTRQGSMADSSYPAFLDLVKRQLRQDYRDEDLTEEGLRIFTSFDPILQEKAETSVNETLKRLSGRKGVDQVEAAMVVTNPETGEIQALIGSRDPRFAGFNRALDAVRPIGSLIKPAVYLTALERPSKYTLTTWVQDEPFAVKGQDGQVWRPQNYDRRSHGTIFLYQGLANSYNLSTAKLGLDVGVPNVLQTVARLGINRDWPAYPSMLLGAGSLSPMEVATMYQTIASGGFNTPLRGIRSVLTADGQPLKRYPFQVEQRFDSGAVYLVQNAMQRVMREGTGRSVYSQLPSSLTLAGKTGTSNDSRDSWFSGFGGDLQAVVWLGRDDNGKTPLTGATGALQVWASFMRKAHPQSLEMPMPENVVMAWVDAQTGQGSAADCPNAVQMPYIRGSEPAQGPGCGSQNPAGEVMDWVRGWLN

[2] = molecular target: T2, PBP2 of E. coli NIHJ JC-2 (Escherichia coli, UniProt P0AD65); details: covalent
T2 construct: gene mrdA
T2 sequence (P0AD65 1-633): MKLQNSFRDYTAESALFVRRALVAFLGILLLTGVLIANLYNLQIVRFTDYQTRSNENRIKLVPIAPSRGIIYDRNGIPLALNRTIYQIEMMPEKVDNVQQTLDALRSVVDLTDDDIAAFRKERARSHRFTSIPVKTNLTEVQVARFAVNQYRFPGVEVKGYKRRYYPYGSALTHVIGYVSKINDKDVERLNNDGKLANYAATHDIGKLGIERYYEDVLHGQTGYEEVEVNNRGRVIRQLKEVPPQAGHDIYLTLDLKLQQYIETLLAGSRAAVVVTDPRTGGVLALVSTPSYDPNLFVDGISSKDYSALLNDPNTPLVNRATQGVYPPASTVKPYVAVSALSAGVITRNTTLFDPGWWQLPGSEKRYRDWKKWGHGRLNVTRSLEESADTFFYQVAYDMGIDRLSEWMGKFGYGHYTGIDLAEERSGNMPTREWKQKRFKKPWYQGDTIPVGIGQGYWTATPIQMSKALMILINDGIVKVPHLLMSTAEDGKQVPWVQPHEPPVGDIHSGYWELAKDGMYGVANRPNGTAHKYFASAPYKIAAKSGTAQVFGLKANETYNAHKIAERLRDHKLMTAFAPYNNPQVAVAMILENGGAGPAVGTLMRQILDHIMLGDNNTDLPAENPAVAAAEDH

[3] = molecular target: T3, PBP2 of P. aeruginosa ATCC 27853 (Pseudomonas aeruginosa, UniProt Q9X6V3); details: covalent; read-out: IC50 (μg/ml) / E. coli NIHJ JC-2 / Ceftazidime
T3 construct: gene pbpA
T3 sequence (Q9X6V3 1-646): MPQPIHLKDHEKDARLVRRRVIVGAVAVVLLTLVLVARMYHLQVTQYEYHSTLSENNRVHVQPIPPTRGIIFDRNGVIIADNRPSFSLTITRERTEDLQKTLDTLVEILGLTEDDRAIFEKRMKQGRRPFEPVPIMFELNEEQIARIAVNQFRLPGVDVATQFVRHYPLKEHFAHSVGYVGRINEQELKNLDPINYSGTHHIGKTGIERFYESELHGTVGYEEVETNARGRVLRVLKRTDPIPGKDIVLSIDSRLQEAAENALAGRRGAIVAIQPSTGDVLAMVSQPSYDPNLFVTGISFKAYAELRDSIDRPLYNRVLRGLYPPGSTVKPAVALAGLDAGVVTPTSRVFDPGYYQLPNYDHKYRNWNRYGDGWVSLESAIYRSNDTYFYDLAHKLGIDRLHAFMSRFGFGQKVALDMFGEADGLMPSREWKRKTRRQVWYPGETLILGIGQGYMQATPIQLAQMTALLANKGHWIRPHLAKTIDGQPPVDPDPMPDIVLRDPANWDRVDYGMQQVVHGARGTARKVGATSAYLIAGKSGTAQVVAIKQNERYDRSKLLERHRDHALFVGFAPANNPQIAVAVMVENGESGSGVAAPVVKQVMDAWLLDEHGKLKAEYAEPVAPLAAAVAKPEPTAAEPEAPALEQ

## CC(C)(O/N=C(\C(=O)N[C@@H]1C(=O)N2C(C(=O)[O-])=C(C[N+]3(CCNC(=O)c4ccc(O)c(O)c4Cl)CCCC3)CS[C@H]12)c1csc(N)n1)C(=O)O [cefiderocol]
[1]
  IC50: > 5.32 µM
[2]; read-out: IC50 (μg/ml) / E. coli NIHJ JC-2 / Cefiderocol (converted)
  IC50: 2.82 µM
[3]
  IC50: > 5.32 µM

## CC(C)(O/N=C(\C(=O)N[C@@H]1C(=O)N2C(C(=O)[O-])=C(C[n+]3ccccc3)CS[C@H]12)c1csc(N)n1)C(=O)O [ceftazidime]
[1]
  IC50: > 7.32 µM
[2]; read-out: IC50 (μg/ml) / E. coli NIHJ JC-2 / Ceftazidime
  IC50: > 7.32 µM
[3]
  IC50: > 7.32 µM
